Results as given in publication PMC4295023 (Investigational New Drugs, 2014).
Where two headings read alike, the source gives them in different places.

Tests used:
RCC = tested on: RCC; parameters: method as in PMID 22056247; details: after first line therapy, cited from earlier work
[1] = Pharmacokinetic analysis of blood samples (noncompartmental); type: in vivo, human; details: for AUC(0-t) / Cmax: human
Procedure: Blood samples were collected pre-, 1, 2, 4, 6, 8, 12, and 24 h post-dose on Days 1 and 2 of Cycles 1 and 2. […] Noncompartmental PK parameters were calculated using WinNonlin (Pharsight, Mountain View, CA).

In the case of `CNC(=O)c1ccccc1Sc1ccc2c(/C=C/c3ccccn3)n[nH]c2c1` [axitinib], the mPFS (RCC; axitinib arm) is given as 6.7 months.

For `CNC(=O)c1cc(Oc2ccc(NC(=O)Nc3ccc(Cl)c(C(F)(F)F)c3)cc2)ccn1` [sorafenib, reference compound], the AUC(0-t) ([1]; blood, sorafenib, steady state (cycle 2), HCC patients, tivantinib 360 mg BID and sorafenib 400 mg BID, read-out: AUC0-12h) is given as 43300 ng·h/mL, the AUC0-12h ([1]; sorafenib, steady state (cycle 2), non-HCC patients, tivantinib 360 mg BID and sorafenib 400 mg BID) is given as 39,906 ± 20,604 ng*hr/mL and the mPFS (RCC; sorafenib arm) is given as 4.7 months.

Work on `O=C1NC(=O)[C@@H](c2cn3c4c(cccc24)CCC3)[C@@H]1c1c[nH]c2ccccc12` [tivantinib, Tivantinib] yielded an AUC(0-t) ([1]; in vivo, tivantinib, cycle 2, one HCC patient, tivantinib 240 mg BID with sorafenib 400 mg BID, read-out: AUC0-12 h) of 6690 ng·h/mL, a Cmax ([1]; in vivo, tivantinib, cycle 2, one HCC patient, tivantinib 240 mg BID with sorafenib 400 mg BID, read-out: Cmax) of 879 ng/mL and an AUC(0-t) ([1]; in vivo, tivantinib, steady state (cycle 2), HCC patients, tivantinib 360 mg BID and sorafenib 400 mg BID, read-out: AUC0-12h) of 12400 ng·h/mL. The Cmax ([1]; in vivo, tivantinib, steady state (cycle 2), HCC patients, tivantinib 360 mg BID and sorafenib 400 mg BID, read-out: mean Cmax) was 1510 ng/mL, the AUC(0-t) ([1]; in vivo, tivantinib, steady state (cycle 2), non-HCC patients, tivantinib 360 mg BID and sorafenib 400 mg BID, read-out: AUC0-12h) was 8740 ng·h/mL and the Cmax ([1]; in vivo, tivantinib, steady state (cycle 2), non-HCC patients, tivantinib 360 mg BID and sorafenib 400 mg BID, read-out: mean Cmax) was 1320 ng/mL.
